Here are results for 1 compound from article PMC6400584, “Activation mechanism of ATP-sensitive K^+ channels explored with real-time nucleotide binding” (eLife, 2019).

Experiment [1] addresses T1, SUR1/Kir6.2-G334D (Homo sapiens, UniProt Q09428).
T1 construct: expressed in transfected cells; host or cells: HEK-293T
Details: method as in Proks et al., 2010. To be noted: ref Proks et al., 2010; read-out: EC50 for activation of currents; cited from earlier work.

Experiment [2] addresses T2, 3xFLAG_SUR1/Kir6.2 (Homo sapiens, UniProt Q09428+Q14654, INS1042[…]).
T2 construct: expressed in transfected cells; host or cells: HEK-293T
In words: Current response to 100 μM nucleotide relative to nucleotide-free solution, inside-out patches. In kind it is biochemical. On the procedure:
(§1) Currents were recorded from inside-out membrane patches excised from transfected HEK-293T cells. Pipettes were pulled to a resistance of 1–5 MΩ and filled with an extracellular solution containing (in mM) 140 KCl, 1.2 MgCl2, 2.6 CaCl2, and 10 HEPES, pH 7.4 or 140 KCl, 1 EGTA, 10 HEPES, pH 7.3. The intracellular (bath) solutions contained either (in mM) 107 KCl, 2 MgCl2, 1 CaCl2, 10 EGTA, and 10 HEPES, pH 7.2 for experiments showing nucleotide-dependent activation or 140 KCl, 1 EDTA, 1 EGTA, 10 HEPES pH 7.3 for experiments showing nucleotide-dependent inhibition. Nucleotides were added as indicated. Patches were perfused with an 8-channel µFlow perfusion system. Data were acquired at a holding potential of −60 mV using an Axopatch 200B amplifier and Digidata 1322A digitizer with pClamp 9.0 software (Molecular Devices). Currents were digitized at 10 kHz and low-pass filtered at 1 kHz. KATP channels run down in excised patches (reviewed by Proks et al.) ([Proks et al., 2016]). For inhibitory concentration-response relationships, rundown was corrected by alternating test nucleotide solutions with nucleotide-free (control) solutions and expressing the test currents as a fraction of the average of the control currents before and after the test solution. […]

The target in experiment [3] is T3, SUR1-Y1353^stop/Kir6.2 (Homo sapiens, UniProt Q09428+Q14654).
T3 construct: expressed in transfected cells; host or cells: HEK-293T
T3 sequence (Q09428 1-1352): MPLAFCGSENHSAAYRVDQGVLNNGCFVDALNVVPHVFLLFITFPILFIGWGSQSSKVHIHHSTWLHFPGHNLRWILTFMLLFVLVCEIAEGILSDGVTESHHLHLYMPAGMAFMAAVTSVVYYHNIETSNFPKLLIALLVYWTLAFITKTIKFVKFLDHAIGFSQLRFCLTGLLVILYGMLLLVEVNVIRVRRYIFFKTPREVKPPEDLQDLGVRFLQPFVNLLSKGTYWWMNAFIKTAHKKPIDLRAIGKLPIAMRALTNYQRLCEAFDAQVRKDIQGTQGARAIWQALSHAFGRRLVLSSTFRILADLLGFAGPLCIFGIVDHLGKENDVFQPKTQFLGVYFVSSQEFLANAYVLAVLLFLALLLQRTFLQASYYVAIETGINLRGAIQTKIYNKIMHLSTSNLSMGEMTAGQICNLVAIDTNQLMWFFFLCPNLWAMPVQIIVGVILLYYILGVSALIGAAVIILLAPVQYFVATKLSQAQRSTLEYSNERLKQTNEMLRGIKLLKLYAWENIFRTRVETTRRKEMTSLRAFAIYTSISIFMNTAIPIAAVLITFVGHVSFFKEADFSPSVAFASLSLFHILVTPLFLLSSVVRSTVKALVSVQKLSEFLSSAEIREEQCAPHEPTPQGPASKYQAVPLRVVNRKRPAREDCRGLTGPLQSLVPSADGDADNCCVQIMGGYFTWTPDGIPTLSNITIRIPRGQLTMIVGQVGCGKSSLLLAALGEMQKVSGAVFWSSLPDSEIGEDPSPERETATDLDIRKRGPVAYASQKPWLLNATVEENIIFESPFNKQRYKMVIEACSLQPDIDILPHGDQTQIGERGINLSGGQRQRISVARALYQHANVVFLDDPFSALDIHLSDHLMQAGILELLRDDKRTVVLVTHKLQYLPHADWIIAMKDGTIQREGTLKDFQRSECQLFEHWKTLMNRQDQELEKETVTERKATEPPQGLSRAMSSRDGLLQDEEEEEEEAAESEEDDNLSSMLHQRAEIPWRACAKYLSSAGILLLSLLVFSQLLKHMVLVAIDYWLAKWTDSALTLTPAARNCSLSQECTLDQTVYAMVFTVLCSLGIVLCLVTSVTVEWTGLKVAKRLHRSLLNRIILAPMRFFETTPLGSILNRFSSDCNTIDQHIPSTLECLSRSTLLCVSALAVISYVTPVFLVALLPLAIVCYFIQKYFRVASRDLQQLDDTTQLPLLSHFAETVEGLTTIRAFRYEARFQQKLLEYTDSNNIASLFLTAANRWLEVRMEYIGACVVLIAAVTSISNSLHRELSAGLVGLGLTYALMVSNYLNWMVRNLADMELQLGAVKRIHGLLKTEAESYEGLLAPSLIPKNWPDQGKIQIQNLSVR
T3 sequence (Q14654 1-390): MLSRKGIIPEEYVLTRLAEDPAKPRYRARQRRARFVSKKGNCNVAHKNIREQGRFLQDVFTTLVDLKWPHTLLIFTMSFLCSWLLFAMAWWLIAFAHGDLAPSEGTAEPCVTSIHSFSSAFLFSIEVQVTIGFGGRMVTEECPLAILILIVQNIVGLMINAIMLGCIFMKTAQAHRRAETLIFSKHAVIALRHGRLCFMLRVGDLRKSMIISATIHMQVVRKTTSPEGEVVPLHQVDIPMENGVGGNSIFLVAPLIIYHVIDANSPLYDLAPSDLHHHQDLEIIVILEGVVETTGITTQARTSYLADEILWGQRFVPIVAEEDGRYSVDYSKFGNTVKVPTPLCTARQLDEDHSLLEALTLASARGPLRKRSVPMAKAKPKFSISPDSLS
Described as above. In kind it is biochemical. The conditions noted are these: truncated SUR1-Y1353^stop. Here is the method: as §1

Experiment [4] has as its system SUR1-Y1353*/Kir6.2-G334D. Briefly: Currents in inside-out patches. To be noted: co-expressed with pANAP and pERF1-E55D. In kind it is biochemical, Homo sapiens. Here is the method: as §1

T1 sequence (Q09428 whole entry, stated change not applied): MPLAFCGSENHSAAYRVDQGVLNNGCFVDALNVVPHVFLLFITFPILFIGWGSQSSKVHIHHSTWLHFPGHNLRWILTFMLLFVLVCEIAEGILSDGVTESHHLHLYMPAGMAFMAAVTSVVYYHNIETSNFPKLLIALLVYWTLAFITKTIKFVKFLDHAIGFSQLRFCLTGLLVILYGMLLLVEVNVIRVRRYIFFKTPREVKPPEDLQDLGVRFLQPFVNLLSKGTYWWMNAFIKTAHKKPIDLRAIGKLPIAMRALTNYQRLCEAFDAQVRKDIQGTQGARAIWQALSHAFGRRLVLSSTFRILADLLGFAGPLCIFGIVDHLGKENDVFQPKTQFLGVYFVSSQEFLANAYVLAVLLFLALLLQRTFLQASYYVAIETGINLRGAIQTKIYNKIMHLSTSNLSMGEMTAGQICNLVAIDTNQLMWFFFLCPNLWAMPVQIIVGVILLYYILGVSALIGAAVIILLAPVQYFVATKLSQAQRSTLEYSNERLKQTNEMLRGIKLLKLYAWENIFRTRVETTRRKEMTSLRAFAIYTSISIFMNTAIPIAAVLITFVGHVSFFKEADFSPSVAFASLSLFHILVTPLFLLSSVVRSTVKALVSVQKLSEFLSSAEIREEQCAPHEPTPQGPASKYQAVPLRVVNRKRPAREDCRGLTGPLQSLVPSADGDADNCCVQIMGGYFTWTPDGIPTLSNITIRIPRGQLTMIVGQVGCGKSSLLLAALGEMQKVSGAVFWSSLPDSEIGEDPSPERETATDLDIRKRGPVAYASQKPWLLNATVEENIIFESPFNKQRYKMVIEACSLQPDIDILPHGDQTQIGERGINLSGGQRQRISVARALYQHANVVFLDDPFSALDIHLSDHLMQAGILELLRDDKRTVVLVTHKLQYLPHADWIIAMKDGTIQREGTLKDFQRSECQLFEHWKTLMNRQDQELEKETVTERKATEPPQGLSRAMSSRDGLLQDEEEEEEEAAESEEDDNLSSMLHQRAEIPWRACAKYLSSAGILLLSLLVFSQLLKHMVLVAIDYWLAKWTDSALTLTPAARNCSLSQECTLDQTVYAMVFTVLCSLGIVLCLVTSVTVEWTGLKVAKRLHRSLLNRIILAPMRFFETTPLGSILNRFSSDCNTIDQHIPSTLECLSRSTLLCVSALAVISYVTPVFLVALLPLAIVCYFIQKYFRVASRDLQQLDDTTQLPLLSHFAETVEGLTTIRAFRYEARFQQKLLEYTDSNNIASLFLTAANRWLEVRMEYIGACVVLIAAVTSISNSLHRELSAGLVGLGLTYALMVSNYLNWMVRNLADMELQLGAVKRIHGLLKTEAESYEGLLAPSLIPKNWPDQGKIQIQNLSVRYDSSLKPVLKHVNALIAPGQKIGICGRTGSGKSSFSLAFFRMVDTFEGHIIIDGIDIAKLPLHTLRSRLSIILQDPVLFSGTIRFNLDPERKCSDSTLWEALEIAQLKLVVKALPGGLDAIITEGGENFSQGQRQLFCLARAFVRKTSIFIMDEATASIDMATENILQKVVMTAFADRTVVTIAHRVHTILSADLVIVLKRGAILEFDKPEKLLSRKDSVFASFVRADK
T1 sequence (Q14654 whole entry G334D partner): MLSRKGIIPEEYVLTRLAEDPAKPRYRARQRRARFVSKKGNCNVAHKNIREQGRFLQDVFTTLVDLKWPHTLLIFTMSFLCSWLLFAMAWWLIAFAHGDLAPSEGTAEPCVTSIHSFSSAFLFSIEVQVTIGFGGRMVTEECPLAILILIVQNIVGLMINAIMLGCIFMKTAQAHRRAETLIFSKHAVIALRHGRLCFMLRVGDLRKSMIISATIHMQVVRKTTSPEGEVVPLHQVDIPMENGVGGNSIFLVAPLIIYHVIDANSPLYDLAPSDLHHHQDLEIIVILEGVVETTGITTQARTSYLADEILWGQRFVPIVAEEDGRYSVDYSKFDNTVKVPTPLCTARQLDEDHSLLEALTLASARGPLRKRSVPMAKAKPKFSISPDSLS
T2 sequence (Q09428 with tags, fused parts or gaps INS1042[withheld], one chain of several): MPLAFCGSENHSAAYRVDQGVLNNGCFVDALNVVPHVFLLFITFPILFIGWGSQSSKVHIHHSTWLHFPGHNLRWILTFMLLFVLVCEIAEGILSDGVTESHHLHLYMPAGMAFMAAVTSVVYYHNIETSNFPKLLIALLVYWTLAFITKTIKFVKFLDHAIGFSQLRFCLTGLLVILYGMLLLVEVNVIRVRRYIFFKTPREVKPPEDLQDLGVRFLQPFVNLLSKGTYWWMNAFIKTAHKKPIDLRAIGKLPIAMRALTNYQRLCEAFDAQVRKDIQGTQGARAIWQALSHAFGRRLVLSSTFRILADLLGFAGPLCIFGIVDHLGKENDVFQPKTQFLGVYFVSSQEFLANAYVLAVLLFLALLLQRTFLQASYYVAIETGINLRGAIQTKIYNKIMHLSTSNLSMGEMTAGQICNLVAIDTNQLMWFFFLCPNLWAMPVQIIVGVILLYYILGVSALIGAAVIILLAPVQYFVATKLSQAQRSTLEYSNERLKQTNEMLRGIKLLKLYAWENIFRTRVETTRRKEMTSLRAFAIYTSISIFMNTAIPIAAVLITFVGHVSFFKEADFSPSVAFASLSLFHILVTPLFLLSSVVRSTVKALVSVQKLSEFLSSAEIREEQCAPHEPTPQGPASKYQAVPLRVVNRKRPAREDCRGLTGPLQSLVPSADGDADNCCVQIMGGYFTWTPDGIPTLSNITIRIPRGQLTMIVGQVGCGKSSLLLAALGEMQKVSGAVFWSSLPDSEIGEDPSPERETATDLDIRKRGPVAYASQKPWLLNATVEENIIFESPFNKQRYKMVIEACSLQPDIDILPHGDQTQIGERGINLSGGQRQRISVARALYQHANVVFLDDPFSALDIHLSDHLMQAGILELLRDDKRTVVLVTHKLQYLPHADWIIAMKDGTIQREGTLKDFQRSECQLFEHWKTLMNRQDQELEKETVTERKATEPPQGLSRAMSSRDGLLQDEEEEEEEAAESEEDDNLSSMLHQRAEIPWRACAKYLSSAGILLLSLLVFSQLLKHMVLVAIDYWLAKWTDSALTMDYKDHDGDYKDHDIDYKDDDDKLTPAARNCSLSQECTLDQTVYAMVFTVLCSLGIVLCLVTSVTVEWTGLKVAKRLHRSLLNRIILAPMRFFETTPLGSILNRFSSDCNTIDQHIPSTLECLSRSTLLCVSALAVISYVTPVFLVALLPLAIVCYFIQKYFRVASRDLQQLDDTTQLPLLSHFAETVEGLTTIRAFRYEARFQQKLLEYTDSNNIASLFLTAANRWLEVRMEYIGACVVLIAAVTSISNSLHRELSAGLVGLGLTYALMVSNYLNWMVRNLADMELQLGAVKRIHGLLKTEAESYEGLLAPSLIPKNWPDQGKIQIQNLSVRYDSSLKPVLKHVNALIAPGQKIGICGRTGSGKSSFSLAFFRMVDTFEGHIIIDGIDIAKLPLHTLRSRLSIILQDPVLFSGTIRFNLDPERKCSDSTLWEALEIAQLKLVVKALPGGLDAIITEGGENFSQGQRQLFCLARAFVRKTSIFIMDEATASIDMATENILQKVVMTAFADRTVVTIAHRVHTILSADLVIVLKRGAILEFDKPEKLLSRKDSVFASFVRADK

As a reminder, the EC50 is the concentration needed to bring the measured effect to its halfway point. For `Nc1ncnc2c1ncn2[C@@H]1O[C@H](COP(=O)([O-])OP(=O)([O-])O)[C@@H](O)[C@H]1O.[Mg+2]` [MgADP], the half-maximal effective concentration (EC50) in experiment [1] is 7.7 µM. The “increase of current over nucleotide-free control” value in experiment [2] turned out to be 3.6 fold. The compound also had an inhibition of current in experiment [3] of 59%. Further, the effect on currents result in experiment [4] is reported as “no activation”.
